Experimental data: patent US10632127B2, “Targeted notch pathway inhibitors” (Hoffmann-La Roche Inc., priority 2015, dated 2020)
pIC50: −log10 of the molar value. Structures can show the parent of a compound that is named as a salt.

Legend:
EC219 cells = assay: Extracellular release of the γ-secretase inhibitor from prodrugs by EC219 endothelial cells; format: in vitro ADME, rat; settings: HEK293, 215/F2, HK2 and EC219 cells, 20 μM in PBS, 19 h
Method: FIG. 2A. Extracellular release of amine-SecrI (11a) metabolites for α-Glu- and γ-Glu-secretase inhibitor prodrugs. The prodrugs were added to the cells for 19 h, then the supernatants were harvested and analyzed for SecrI (8), amine-SecrI (11a), the prodrugs 13a, 13b, 15a, 15b and (for 13a, 15a) also the correponding deacetylated metabolites.
Cpd added: 20 μM in PBS, 19 h incubation. SecrI (8) is stable when added to cells for 19 h; free SecrI (8) was never detected from any prodrug.
The preparation and characterization of rat brain-derived EC219 endothelial cells have been described in Juillerat-Jeanneret, L. et al. In Vitro Cell. Dev. Biol. 1992, 28A, 537-543. These cells express high levels of APA and γ-GT activities and can be used for determining kinetics in living cells, and were chosen as APA- and γ-GT-positive representative cell models. EC219 cells were grown in DMEM medium containing 1 g/l glucose, 10% heat-inactivated fetal calf serum (FCS, EuroClone, UK) supplemented with 100 U/mL penicillin and 100 μg/mL streptomycin (P/S) on uncoated cell culture plastic ware. The HEK293 and HK2 human kidney cells are available from the ATCC (American Tissue Culture Collection, Manassas, Va., USA). HEK293 cells were grown on uncoated cell culture plastic ware in Iscove modified Dulbecco medium (IMDM, Life Technologies) containing 10% FCS and P/S. HK2 cells were grown on uncoated cell culture plastic ware in DMEM/F-12 GlutaMAX medium (Gibco) containing 5% FCS, P/S, 1% ITS (1.0 mg/ml bovine insulin, 0.55 mg/ml human transferrin and 0.5 μg/ml sodium selenite, Sigma-Aldrich) and 5 ng/ml hydrocortisone. […] Then 75 μl of supernatant from each well was removed and the luciferase activity was determined by adding 25 μl of Steady-Glo luciferase assay reagent (Promega).
A first screen of the different γ-secretase prodrugs was performed in vitro to determine the cleavage rate of each compound and ex-vivo in mouse kidney tissues. Extracellular release of the γ-secretase inhibitor from prodrugs by human kidney cells (HEK293, HEK293-derived Notch-reporter 215/F2 cells28,39 and HK2 cells) as well as the rat brain-derived EC219 endothelial cells which express very high levels of APA and γ-GT activities were evaluated for liberating active inhibitors SecrI (8) or amine-SecrI (11a) (FIG. 2A).
All samples were analyzed using protein precipitation followed by LC-MS/MS analysis. […] One μL of the supernatant was analyzed by LC/MS. […]

[1] = biological target: Notch signal transduction pathway; assay: In vitro Notch signal transduction pathway activity assay (DR215/F2 luciferase reporter); format: cell-based, human
Method: The compounds were dissolved in dimethyl sulfoxide (DMSO) at 10 mM stock solution, aliquoted and stored at −4° C. until use, then diluted in PBS or cell culture medium. In the experimental settings, controls containing increasing concentrations of DMSO, corresponding to the amount of DMSO of the diluted compounds were always included. For in vivo experiments, the compounds were dissolved in 0.9% NaCl, incubated 30 min at 40° C. and sonicated for 5 min.
The requirement of proteolytic activation of the prodrugs to inhibit Notch cleavage by the γ-secretase, was investigated using a reporter assay (Table 3). The DR215/F2 cell line expresses a reporter construct designed to monitor the activity of the Notch signal transduction pathway. The DR215/F2 cell line 39 carries two transgenes: the firefly luciferase reporter gene expressed under the control of the Gal4 promoter and the human Notch1 activator gene fused with the yeast Gal4 transcription factor. This assay confirmed that the prodrugs were able to inhibit γ-secretase and the activation of the Notch pathway. The DR215/F2 cell reporter assay was also used to determine the IC50 for blockade of the Notch pathway by all the compounds designed and prepared.
The values were determined using the 215/F2 reporter cell line for Notch activation by the γ-secretase. All values are the mean of at least 3 experiments.
The preparation and characterization of rat brain-derived EC219 endothelial cells have been described in Juillerat-Jeanneret, L. et al. In Vitro Cell. Dev. Biol. 1992, 28A, 537-543. These cells express high levels of APA and γ-GT activities and can be used for determining kinetics in living cells, and were chosen as APA- and γ-GT-positive representative cell models. EC219 cells were grown in DMEM medium containing 1 g/l glucose, 10% heat-inactivated fetal calf serum (FCS, EuroClone, UK) supplemented with 100 U/mL penicillin and 100 μg/mL streptomycin (P/S) on uncoated cell culture plastic ware. The HEK293 and HK2 human kidney cells are available from the ATCC (American Tissue Culture Collection, Manassas, Va., USA). HEK293 cells were grown on uncoated cell culture plastic ware in Iscove modified Dulbecco medium (IMDM, Life Technologies) containing 10% FCS and P/S. HK2 cells were grown on uncoated cell culture plastic ware in DMEM/F-12 GlutaMAX medium (Gibco) containing 5% FCS, P/S, 1% ITS (1.0 mg/ml bovine insulin, 0.55 mg/ml human transferrin and 0.5 μg/ml sodium selenite, Sigma-Aldrich) and 5 ng/ml hydrocortisone. The human HEK293-derived DR215/F2 embryonic kidney cell line, stably transfected with pFR Luc and APP-Notch Gal (plasmid DR215) as described in WO 2006/061136 A2 and Brockhaus, M. Neuroreport 1998 9, 1481-1486, were maintained using IMDM with 10% FCS supplemented with P/S and kept under double-selection with 150 μg/ml G-418 and 50 μg/ml hygromycin B on coated (1:100 Poly-L-lysine) cell culture plastic ware. In this assay, the Notch-Gal4 protein is bound to the cell membrane via its trans-membrane domain. The Notch intracellular domain is released by proteolytic cleavage mediated by the γ-secretase and moves to the cell nucleus where it activates the reporter luciferase gene transcript. Inhibition of γ-secretase thus decreases luciferase activity. Briefly, cultures were grown in 96-well microplates to 80% confluence; the cells were then washed in PBS and exposed to decreasing concentrations of the γ-secretase-inhibitor analogues in complete IMDM culture medium without red phenol at 37° C. for 19 h. Then 75 μl of supernatant from each well was removed and the luciferase activity was determined by adding 25 μl of Steady-Glo luciferase assay reagent (Promega).

γ-secretase = γ-secretase (Homo sapiens, UniProt P49768); assay: In vitro γ-secretase activity assay (cell-free); format: biochemical; settings: HEK293 membrane fraction, recombinant APP substrate, Abeta ELISA
Method: The γ-secretase activity of the γ-secretase inhibiting alcohols of formula (A) of present invention was determined in cell-free in vitro assays where e.g., a cell lysate containing the γ-secretase complex is incubated with a suitable β-Amyloid Precursor Protein (APP)-derived substrate which is cleaved to the Abeta peptides. The amount of produced peptides can be determined with specific ELISA assays. Cell lines of neuronal origin secrete Abeta peptides which can be measured with the specific ELISA assay. Treatment with compounds which inhibit γ-secretase leads to a reduction of secreted Abeta thus providing a measure of inhibition.
The in vitro assay of γ-secretase activity uses a HEK293 membrane fraction as a source of γ-secretase and a recombinant APP substrate. Latter consist of the C-terminal 100 amino acids of human APP fused to a 6×Histidin tail for purification which is expressed in E. coli in a regulatable expression vector, e.g. pEt15. This recombinant protein corresponds to the truncated APP fragment which results after […] of the extracellular domain and which constitutes the γ-secretase substrate. […] The Abeta peptides which are produced by γ-secretase cleavage of the substrate are detected by specific ELISA assays as described (Brockhaus M et al, Neuroreport 9(7), 1481-1486 (1998).

| SMILES | hydrolysis by γ-GT (EC219 cells) | IC50 for blockade of the Notch pathway, range in words ([1]; DR215/F2 cell reporter assay) | pIC50 ([1]; Homo sapiens, 215/F2 reporter cell line, 19 h, mean of at least 3 experiments) | pIC50 (γ-secretase) |
| --- | --- | --- | --- | --- |
| C[C@H]1Oc2ccc(F)cc2N(CCOC(=O)NCCNC(=O)CC[C@H](N)C(=O)O)C(=O)[C@H]1NC(=O)[C@@](C)(O)C(=O)NCC(F)(F)C(F)(F)F [Compound 13b, (S)-2-Amino-5-(2-((2-((2R,3S)-7-fluoro-3-((S)-2-hydroxy-2-methyl-3-oxo-3-(2,2,3,3,3-pentafluoropropylamino)propanamido)-2-methyl-4-oxo-3,4-dihydrobenzo[b][1,4]oxazepin-5(2H)-yl)ethoxy)carbonylamino)ethylamino)-5-oxopentanoic acid hydrochloride] | also not hydrolyzed by γ-GT | μM range | 5.96 | – |
| C[C@H]1Oc2ccc(F)cc2N(CCO)C(=O)[C@H]1NC(=O)C(C)(C)C(=O)NCC(F)(F)C(F)(F)F [Example 53, N-[(6R,7S)-2-Fluoro-9-(2-hydroxy-ethyl)-6-methyl-8-oxo-6,7,8,9-tetrahydro-5-oxa-9-aza-benzocyclohepten-7-yl]-2,2-dimethyl-N′-(2,2,3,3,3-pentafluoro-propyl)-malonamide] | – | – | – | 7.05 |
